Test results from US10717090B2, “Depression of copper and iron sulfides in molybdenite flotation circuits” (TESSENDERLO KERLEY, INC., priority 2014, dated 2020).

Columns and labels:
[1] = H2S evolution vs. pH in simulated flotation process (headspace analysis); type: physicochemical; settings: pH adjusted to between 9 and 9.5, ambient temperature
Procedure: The H2S evolution due to the decomposition of depressant reagents during storage, handling and application presents the highest associated hazard with regards to health and safety (HSE). Testing of TKI's Alkaline Polysulfide products against the standard (NaHS reagent) was conducted in a simulated flotation process using lab apparatus to determine the amount of H2S evolved at various pH's. The tests were conducted using the following testing protocol; • All tests were ran at ambient temperatures using tap water. Add 500 ml of tap water to […] glass apparatus, check pH and temp, start and maintain stirring throughout test. • Add Ca(OH)2 to raise pH to approximately 10.5 • Add 5 mL of reagent. • Allow to stabilize for 2 min, with cracking of stopper to equilibrate at 1 min. • Check pH, temperature and H2S in VP using analyzer. • Add H2SO4 to decrease pH to ˜9. • Allow to stabilize for 2 min, with cracking of stopper to equilibrate at 1 min. • Check pH, temperature and H2S in VP using analyzer. • Repeat last three Steps for pH 9, 8 and 7 if applicable.
Note the H2S in the vapor phase above the polysulfide samples increased to 1500 ppm at pH near 8.2, while this 1500 ppm level was reached by NaHS samples at pH 9.1 to 9.3. […] This would translate into a less hazardous environment in applications where the process is run ran at lower pH's (˜9) utilizing for example CO2 as a flotation medium or modifying agent.
Values above 1500 ppm are lower limits, as the H2S meter maximum reading was 2000 PPM. […] Therefore, this invention may show significant health and safety benefits even at pH near 8.

mammals = settings: cited from earlier work

Molecule	H2S in vapor phase [1]	LD50 (mammals)
Sodium Polysulfide [NaPS]	remained low	
Calcium Polysulfide [CaPS]	remained low	about 0.8 grams per kilogram of body weight
Potassium Polysulfide [KPS]	presumably KPS remained low	
S [NaHS, Sodium hydrosulfide, reference compound]	1500 ppm	
